Patent publication US20030049253A1, “Polymeric conjugates for delivery of MHC-recognized epitopes via peptide vaccines” (priority 2001, published 2003)

Tests used:
[1] = test system: CD4+ and CD8+ splenocytes; parameters: species or system BALB/c mice; conditions: mouse, in vivo
Mouse spleen cells = assay: In vitro cytokine assay: IFN-γ ELISA of spleen cell culture supernatants; assay type: in vivo; conditions: spleen cells cultured with p7g peptide, 24 hours; limit of detection 5 pg/ml; FIG. 3
Procedure: In vitro cytokine assay. Mouse spleen cells were cultured with p7g peptides in parallel with the ELISpot assays. Culture supernatants were collected 24 hours after addition of peptide, and the concentrations of gamma interferon (IFN-γ) were determined by enzyme-linked immunosorbent assay (ELISA). Briefly, anti-mouse IFN-γ (R46A2; monoclonal antibody, Pharmingen) was diluted in coating buffer (pH 9.6) and coated (1 μg protein/well) onto 96-well enzyme-linked immunosorbent assay (ELISA) plates (Nunc Immunoplates; Nunc. Corp., Naperville, Ill.) by overnight incubation at 4° C. The plates were washed six times in wash buffer, then blocked with PBS containing 0.05% Tween 20 (Sigma), 1% low-fat dry milk (Carnation; Nestle Food Corp., Glendale, Calif.), and 4% goat serum (KPL Laboratories, Gaithersburg, Md.) for 1 hour. After washing, each plate was incubated with samples diluted in PBS containing 1% BSA and 0.05% Tween 20 for 1 hour. The plates were then incubated with rabbit anti-mouse IFN-γ (Cytlmmune Sciences, Inc. College, Md.) diluted 1:1000 in the same PBS solution for 1 hour and washed again six times. […] The bound mouse IFN-γ was quantitated by calorimetric reaction using p-nitrophenyl phosphate as a substrate (KPL Laboratories). The optical density (OD) was measured at 405 nm in a Bio-Tek Plate Reader (Winooski, Vt.). […]

[2] = test system: R5 and dual-tropic (R5/X4) HIV-1 strains; conditions: monocyte-derived macrophages, microglia, primary CD4(+) T cells; cited from earlier work
CD4 receptor = CD4 receptor (Homo sapiens, UniProt P01730); conditions: in vitro; cited from earlier work
[3] = test system: human amyloid β amino acid residues 1-42 (Aβ42 peptide); assay: Antibody titer to Aβ42 peptide in vaccinated mice; assay type: in vivo; conditions: 100 μg Aβ42 peptide per injection s.c., day 0 and day 14; FIG. 5
Procedure: Mice were immunized with 100 μg Aβ42 peptide per injection. Aβ42 in PBS alone was injected as control. Mice were primed s.c. on day 0 and boosted on day 14. Detection used goat anti-mouse immunoglobulin conjugated to alkaline phosphatase and p-nitrophenyl phosphate.

## AMQMLKETI [free p7g peptide]
[1]
  CTL response and INF-γ expression (intracellular staining, flow cytometry): no CTL or INF-γ expression
Mouse spleen cells
  concentration of IFN-γ in culture supernatants (ELISA): no measurable IFN-γ

## AS TTTNYT [Peptide T]
[2]
  replication of HIV-1 strains: inhibits replication
CD4 receptor
  binding of isolated gp120 and HIV-1 to the CD4 receptor: inhibition of the binding

## Aβ42 peptide alone
[3]
  antibody titer to Aβ42 peptide: no detectable anti-peptide antibody

## Aβ42 peptide linked to HA
[3]
  antibody titer to Aβ42 peptide: substantial
